# Like-named read-outs stand apart in the source and are kept apart here.
# What was measured:
# [1] = system: MCF-7 vector control cells; assay: Anchorage-independent soft agar colony formation, MCF-7 vector control cells; assay type: cell-based, human; conditions: vector control cells; 100 nM OHT plus 10 nM ICI or 20 nM PD98065
# Procedure: (§1) Cells were starved for 2 days in PRF MEM (InVitrogen) supplemented with 5% fetal bovine serum (FBS, Summit Biotechnology, Fort Collins, Colo.), 6 ng/ml insulin, 200 units/ml penicillin, and 200 μg/ml streptomycin. Soft agar assays were performed in sixwell plates. Into each well, 1.5 ml of prewarmed (50° C.) 0.7% SeaPlaque agarose (FMC, Rockland, Me.) was added and dissolved in PRF MEM supplemented with 5% charcoal stripped FBS (Summit, Fort Collins, Colo.) to serve as the bottom layer, and allowed to solidify at 4° C. until to use. 0.5×10^4 cells as a single cell suspension were suspended in prewarmed (37° C.) of the same media, 4 ml of 0.5% SeaPlaque agarose was then added, and this suspension then plated as the top layer by adding it dropwise to the solidified bottom layer plates. Plates were cooled for 2 hours, and then transferred to a 37° C. humidified incubator. Two days after plating, media containing control vehicle, 1 nM estradiol, 100 nM 4-OH-Tam, 100 nM OHT plus 10 nM ICI, or 100 nM OHT plus 20 nM […] was added to the top cell layer, and the appropriate media was replaced every two days. After 14 days, the colonies were fixed, and the colony number of colonies >50 cells from quadruplicate assays were then counted. The data shown is the mean colony number of four plates, and is representative of two independent experiments.
# (§2) In pancreatic cells, ectopic expression of MKP3 is reported to result in a suppression of cell growth (Fuqua et al., 2003). Thus, the growth characteristics of the MCF-7 stable MKP3 transfectants under different hormonal conditions were investigated using anchorageindependent soft agar assay (FIG. 4B).
# [2] = system: MCF-7-MKP3 cells; assay: Anchorage-independent soft agar colony formation, MKP3-overexpressing MCF-7 transfectants; assay type: cell-based, human; conditions: MKP3-transfected cells; 100 nM OHT plus 10 nM ICI or 20 nM
# Procedure: MCF-7 cells were originally obtained from Dr. Benita Katzenellebogen, but have been maintained in the inventors' laboratory for over 10 years (Fuqua et al., 2000). MCF-7 cells were maintained in Minimal Essential Medium (MEM, InVitrogen) supplemented with 5% fetal bovine serum (Summit Biotechnology, Fort Collins, Colo.), 200 U/ml penicillin, and 200 μg/ml streptomycin. Cells were incubated at 37° C. in 5% CO2. To generate MCF-7 cells stably overexpressing MKP3, 5 μg of the plasmid pcDNA3-MKP3-V5 (Furukawa et al., 2003) or empty vector (pcDNA3-His-V5, InVitrogen), were transfected into the cells using Fugene 6 reagent Roche Clinical Laboratories, Indianapolis, Ind.) in 100 mm tissue culture dishes following the manufacturer's protocol. Stable clones overexpressing MKP3 were selected as described (Fuqua et al., 2000), and positive clones were identified using immunoblot analysis with an anti-V5 antibody (1:5000 dilution)
# as §1, §2
# [3] = system: TR breast cancer; conditions: second-line therapy; cited from earlier work
# [4] = system: ERK 1,2 MAPK; assay: Immunoblot of phospho-MAPK in MCF-7 transfectants; assay type: cell-based, human
# Procedure: (§3) Cells grown in 100 mm dishes were starved in phenol red-free (PRF), serum-free MEM (Specialty Media, Phillipsburg, N.J.) for 48 hours, and were then treated for 2 hours with vehicle (ethanol), estrogen (100 nM, 20), or OHT (100 nM). After treatment, cells were rinsed twice with ice-cold phosphate-buffered saline (PBS) and were then lysed immediately with 200 μl of cell lysis buffer (20 mM Tris HCl, pH 7.4, 150 mM NaCl, 1 mM B-glycerophosphate, 1 mM sodium orthovanadate, and 10% glycerol plus 1:100 proteinase inhibitor cocktail III) (Calbiochem, LaJolla, Calif.) per 100 mm tissue culture. The cell lysates were cleared by centrifugation at 16,100×g for 10 minutes at 4° C. Protein concentration was determined with the BCA Protein Assay kit (Pierce, Rockfold, Ill.) according to the manufacturer's directions. Equal amount of cell extracts were resolved under denaturing conditions by electrophoresis in 8-10% polyacrylamide gels containing sodium dodecyl sulfate (SDS-PAGE), and transferred to nitrocellulose membranes by electroblotting (Schleicher & Schuell, Keene, NH). After blocking of the transferred nitrocellulose membrane with TBST (20 mM Tris pH 7.6, 150 mM NaCl, 0.1% Tween-20) supplemented with 5% non-fat milk for 1 hour at room temperature, the membrane was incubated with primary antibodies either for 1 hour at room temperature (anti-ERα, 1:100 dilution; anti-AIB1, 1:100 dilution; anti-ERK2, 1:500 dilution; anti-Cyclin D1,1:500 dilution; anti-PR, C-19, 1:200 dilution; anti-p190, 1:1000 dilution; anti-V5, 1:5000 dilution), or overnight at 4° C. (anti-phospho MAPK, 1:1000 dilution; anti-phosphor-Ser118-ERα; 1:1000 dilution; MAPK p42/44, 1:1000 dilution), incubated with secondary antibodies for 1 hour at room temperature and then developed with Enhanced Chemiluminescence Reagents (Amersham Pharmacia Biotech, Piscataway, N.J.).
# MAPK activity is tightly regulated by phosphorylation and dephosphorylation. MKP3 participates in a bidirectional regulatory loop with ERK2 MAPK, whereby ERK2 substrate binding is associated with catalytic activation of MKP3, and activated MKP3 negatively regulates pERK2 (Camps et al., 1998). […] Immunoblot analysis with anti-V5 was used to detect ectopic MKP3 expression in the two MKP3 transfectants (FIG. 5A, top panel). FIGS. 5B and 5C provide quantitation of results in FIG. 5A.
# [5] = system: ERα; assay: Immunoblot of phospho-S118 ERα and total ERα in MCF-7 transfectants; assay type: cell-based, human; conditions: control and Tam-treated MKP3.2 cells
# Procedure: as §3
# [6] = system: JNK; assay: Immunoblot of phospho-JNK in MCF-7 transfectants; assay type: cell-based, human; conditions: vector control cells treated with the inhibitor
# Procedure: (§4) Cells grown in 100 mm dishes were starved in phenol red-free (PRF), serum-free MEM (Specialty Media, Phillipsburg, N.J.) for 48 hours, and were then treated for 2 hours with vehicle (ethanol), estrogen (100 nM, 20), or OHT (100 nM). After treatment, cells were rinsed twice with ice-cold phosphate-buffered saline (PBS) and were then lysed immediately with 200 μl of cell lysis buffer (20 mM Tris HCl, pH 7.4, 150 mM NaCl, 1 mM B-glycerophosphate, 1 mM sodium orthovanadate, and 10% glycerol plus 1:100 proteinase inhibitor cocktail III) (Calbiochem, LaJolla, Calif.) per 100 mm tissue culture. The cell lysates were cleared by centrifugation at 16,100×g for 10 minutes at 4° C. Protein concentration was determined with the BCA Protein Assay kit (Pierce, Rockfold, Ill.) according to the manufacturer's directions. Equal amount of cell extracts were resolved under denaturing conditions by electrophoresis in 8-10% polyacrylamide gels containing sodium dodecyl sulfate (SDS-PAGE), and transferred to nitrocellulose membranes by electroblotting (Schleicher & Schuell, Keene, NH). […]
# [7] = system: cyclin D1 (CCND1); assay: Immunoblot of CCND1 in MCF-7 transfectants; assay type: cell-based, human; conditions: MKP3 overexpressing cells
# Procedure: as §4
# (§5) As expected with two hours of estrogen treatment, no induction of the two PR isoforms were detected in either the control vector (Con 1 and 2), or in the MKP3-transfected cells (FIG. 11A). […]
# [8] = system: progesterone receptor (PR) A and B forms; assay: Immunoblot of PR-A and PR-B in MCF-7 transfectants; assay type: cell-based, human; conditions: MKP3 overexpressing cells
# Procedure: as §3, §5
# [9] = system: breast cancer; conditions: cited from earlier work
Structure (SMILES),effect on Tam-induced colony formation [1],effect on Tam-induced colony formation [2],share of TR breast cancer patients who respond [3],effect on the increase in pMAPK ([4]; control and Tam-treated MKP3.2 cells),"effect on activation of MAPK ([4]; vector control cells, all treatment conditions)",effect on the increase in pS118 ERα [5],pJNK level [6],effect on tamoxifen induction of CCND1 [7],effect on PR-B levels in Tam-treated cells [8],benefit compared to tamoxifen ([9]; ER+/PR+ group),benefit compared to tamoxifen ([9]; ER+/PR− subgroup)
"C[C@]12CC[C@@H]3c4ccc(O)cc4C[C@@H](CCCCCCCCC[S+]([O-])CCCC(F)(F)C(F)(F)F)[C@H]3[C@@H]1CC[C@@H]2O (stereo partly shown) [ICI182,780]",completely blocked,completely blocked,About two-thirds,,,,,,,,
COc1cccc(-c2cc(=O)c3ccccc3o2)c1N [PD98059],completely blocked,completely blocked,,effectively inhibited,blocked activation of MAPK,effectively inhibited,elevated,blocked,restored,,
CC(C)(C#N)c1cc(Cn2cncn2)cc(C(C)(C)C#N)c1 [anastrazole],,,,,,,,,,modest advantage,major benefit
